Test results: US20030129189A1, “Tumor necrosis factor-gamma” (priority 1994, published 2003)

Experiments:
[1] = test system: chorioallantoic membrane (CAM); assay: Chicken embryonic chorioallantoic membrane (CAM) angiogenesis assay; format: in vivo; details: 250 ng bacterially-produced TNF-gamma mixed with FGF-2 (100 ng) or VEGF (250 ng)
Method: The CAM assay was carried out essentially as described by Nguyen and colleagues (Microvasc. Res. 47:31-40 (1994)) and Iruela-Arispe and Dvorak (Thromb. Haemost. 78:672-677 (1997)). The method is based on the growth of new capillary vessels into a collagen gel pellet placed directly on the chorioallantoic membrane (CAM). Angiogenic factors such as […], FGF-2 (100 ng), VEGF (250 ng), or bFGF (10, 500, and 1000 ng) were embedded in collagen gel pellets and placed in contact with the CAM. Quantification of angiogenesis in the gels was carried out 24 hours after the placement of the gel pellets by using a Nikon fluorescence microscope. The images were transferred to a Power PC 100 AV, using a CCD Sony camera. Fluorescence intensity was evaluated with NH Image 1.61 software. Fluorescence intensity for the positive controls (which contained an angiogenic factor alone) was considered as the maximum angiogenic response, and set, arbitrarily, at 100. Due to the variability of the assay, inhibition greater than 20% was considered significant.
As an experimental determination of the effect of TNF-gamma on the FGF-2- or VEGF-induced angiogenesis, bacterially-produced TNF-gamma (250 ng) was mixed with either FGF-2 (100 ng) or VEGF (250 ng) and embedded in collagen gel pellets. The pellets were then placed in contact with the CAM as described above.

[2] = test system: THP-1; assay: TNF-gamma activity on THP-1 cells; format: cell-based; set-up: key: The numbers of “+” indicate the relative level of activities.; ++: The numbers of “+” indicate the relative level of activities.; +++: The numbers of “+” indicate the relative level of activities.; “−” indicates no detected activity at the concentration range tested; details: THP-1, human monocytic leukemia
[3] = test system: WEHI 164 cells; assay: Measurement of apoptosis (nucleosome ELISA); format: cell-based, mouse; details: increasing amounts (FIG. 12)
Method: In a first incubation step, anti-histone antibody was fixed adsorptively on the wall of a microtiter plate module. Subsequently, non-specific binding sites on the wall were saturated by treatment with incubation buffer (e.g., blocking solution). During the second incubation step, the nucleosomes contained in the WEHI 164 cell sample treated with the TNF-alpha, TNF-beta or bacterially-produced TNF-gamma were bound via their histone components to the immobilized anti-histone antibody. In the third incubation step, anti-DNA-peroxidase (POD) reacted with the DNA component of the nucleosomes. After removal of all unbound peroxidase conjugate by a washing step, the amount of peroxidase retained in the immunocomplex was determined spectrophotometrically using the substrate ABTS (2,2′-azino-di-[3-ethylbenzthiazoline sulfonate]). Anti-histone antibody reacted with the histones H1, H2A, H2B, H3, and H4 from the sample. Anti-DNA POD antibody bound to single- and double-stranded DNA. Therefore, the ELISA allowed the detection of mono- and oligonucleosomes and may be applied to measure apoptotic cell death. The level of cell death was measured by the amount of cytoplasmic histone-associated DNA fragments which was indicated by the ratio of the absorbances observed at 405 and 490 nm (A405/A490). […]

[4] = test system: L929; assay: TNF-gamma activity on L929 cells (MTS cytotoxicity/proliferation, morphology); format: cell-based, mouse; set-up: key to Proliferation / Differentiation / Adhesion: The numbers of “+” indicate the relative level of activities.; ++: The numbers of “+” indicate the relative level of activities.; +++: The numbers of “+” indicate the relative level of activities.; “−” indicates no detected activity at the concentration range tested
Method: (§1) The adherent target cells were prepared from confluent cultures by trypsinization in PBS, and non-adherent target cells were harvested from stationary cultures and washed once with medium. Target cells were suspended at 3×10^5 cells/ml in medium containing 10% FCS. 0.1 ml aliquots were dispensed into 96-well flat-bottomed microtiter plates containing 0.1 ml serially diluted test samples of cells (WEHI 164 and L929). Incubation was continued for 70 hours. TNF-alpha, TNF-beta and bacterially-produced TNF-gamma were added at a 0.5 μg/ml concentration. The cytotoxicity and proliferation activity was quantified using an MTS assay performed by the addition of 20 μl of MTS and phenazine methosulfate (PMS) solution to each well. After a three hour incubation, the OD at 492 nm was measured by an ELISA plate reader. The OD492 is proportional to the number of viable cells in the wells. The percent of cytotoxicity was calculated as follows: […]. The photographs were taken after 72 hours.
In the graph of FIG. 7B, the assay was performed as described above, however, increasing amounts of TNF-alpha, TNF-beta and TNF-gamma were added to the cultures.

[5] = test system: NF-kappaB p65 DNA-binding in U-937 cells; assay: NF-kappaB activation (EMSA); format: cell-based
Excerpt: Activation of cellular NF-kappaB is preceded by the phosphorylation, ubiquitination, and ultimate degradation of an endogenous NF-kappaB inhibitor molecule designated IkBa. Degradation of the inhibitor allows the p65 subunit of NF-kappaB to translocate to the nucleus where it can act as a transcriptional regulator. For this reason, a electrophoretic mobility shift analysis (EMSA) is an appropriate method for analyzing activation of cellular NF-kappaB by treatment of cultured cells with TNF-gamma.
In these analyses cells (2×10^6 per ml) were treated with different concentrations (0.1-1.0 μg/ml) of bacterially-produced TNF-gamma at 37° C. for 12 hours. Nuclear extracts were then prepared from the cultured cells and EMSA was performed as is well-known in the art and essentially as described (Singh, S. and Aggarwal, B. B. J. Biol. Chem. 270:10631-10636 (1995)).

[6] = test system: Raji; assay: TNF-gamma activity on Raji cells; format: cell-based; set-up: key: The numbers of “+” indicate the relative level of activities.; ++: The numbers of “+” indicate the relative level of activities.; +++: The numbers of “+” indicate the relative level of activities.; “−” indicates no detected activity at the concentration range tested; details: human Burkitt's lymphoma
Method: as §1

[7] = test system: Primary HUVEC; assay: TNF-gamma activity on primary HUVEC; format: cell-based, human; set-up: key: The numbers of “+” indicate the relative level of activities.; ++: The numbers of “+” indicate the relative level of activities.; +++: The numbers of “+” indicate the relative level of activities.; “−” indicates no detected activity at the concentration range tested

For “TNF-gamma: new member of the tumor necrosis factor family; the term refers to TNF-gamma-alpha and/or TNF-gamma-beta”, which “new capillary growth into collagen gels (FGF-2- or VEGF-induced angiogenesis)” value [1] is on record?
The value was “markedly inhibited new capillary growth into collagen gels”.

What about the Adhesion [2] of the same substance?
The Adhesion was “++”.

And the Differentiation [2]?
Its Differentiation is “++”.

And the Proliferation [2]?
Its Proliferation is “−”.

What about the “apoptosis (cytoplasmic histone-associated DNA fragments, A405/A490)” value [3] of the same substance?
Its value is “increasingly high levels of apoptosis”.

And the “morphology change (killed cells)” value ([4]; L929, 0.5 μg/ml, photographs after 72 hours (FIG. 8))?
Its value is “induced a morphology change which appeared as dark round cells (indicating killed cells)”.

And the Adhesion ([4]; L929, mouse fibroblast)?
Its Adhesion is “−−”.

And the Differentiation ([4]; L929, mouse fibroblast)?
Its Differentiation is “−−”.

What about the Proliferation ([4]; L929, mouse fibroblast) of the same substance?
Its Proliferation is “−”.

What about the “inhibition of L929 cell growth” value ([4]; MTS assay, increasing amounts added) of the same substance?
Its value is “but not of the fibroblast cell line L929”.

And the “concentration giving peak activation of DNA-binding by p65” value ([5]; 12 hours)?
The value was 1 µg/mL.

And the “lowest concentration giving an observable increase in p65 DNA-binding” value ([5]; 12 hours)?
The value was 0.2 µg/mL.

What about the “time span of p65 DNA-binding activation over basal levels” value ([5]; after initiation of treatment) of the same substance?
The value was “from 30 minutes to 18 hours”.

And the Adhesion [6]?
Its Adhesion is “−−”.

What about the Differentiation [6] of the same substance?
The Differentiation was “−−”.

What about the Proliferation [6] of the same substance?
The Proliferation was “−”.

And the Differentiation [7]?
The Differentiation was “−?”.

What about the Proliferation [7] of the same substance?
The Proliferation was “++”.
